Experimental data published in ChEMBL document CHEMBL1201862, “PubChem BioAssay data set” (2004).
The source made the active and inactive calls.

Assays:
Vero = experiment: cells; assay type: functional; conditions: Chlorocebus sabaeus
Cytochrome P450 2C9 = Cytochrome P450 2C9 (Homo sapiens, UniProt P11712)
Cytochrome P450 2C19 = Cytochrome P450 2C19 (Homo sapiens, UniProt P33261); experiment: Cytochrome panel assay with activity outcomes. Panel member name: p450-cyp2c19 Compounds with AC50 equal or less than 10 uM are considered active; assay type: functional; conditions: read-out: AC50
Cytochrome P450 2D6 = Cytochrome P450 2D6 (Homo sapiens, UniProt P10635);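 note: CYP2D6 member of a cytochrome P450 panel assay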
Cytochrome P450 1A2 = molecular target: T1, Cytochrome P450 1A2 (Homo sapiens, UniProt P05177);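 note: PubChem cytochrome P450 panel assay, CYP1A2 panel member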
T1 sequence (P05177 whole entry): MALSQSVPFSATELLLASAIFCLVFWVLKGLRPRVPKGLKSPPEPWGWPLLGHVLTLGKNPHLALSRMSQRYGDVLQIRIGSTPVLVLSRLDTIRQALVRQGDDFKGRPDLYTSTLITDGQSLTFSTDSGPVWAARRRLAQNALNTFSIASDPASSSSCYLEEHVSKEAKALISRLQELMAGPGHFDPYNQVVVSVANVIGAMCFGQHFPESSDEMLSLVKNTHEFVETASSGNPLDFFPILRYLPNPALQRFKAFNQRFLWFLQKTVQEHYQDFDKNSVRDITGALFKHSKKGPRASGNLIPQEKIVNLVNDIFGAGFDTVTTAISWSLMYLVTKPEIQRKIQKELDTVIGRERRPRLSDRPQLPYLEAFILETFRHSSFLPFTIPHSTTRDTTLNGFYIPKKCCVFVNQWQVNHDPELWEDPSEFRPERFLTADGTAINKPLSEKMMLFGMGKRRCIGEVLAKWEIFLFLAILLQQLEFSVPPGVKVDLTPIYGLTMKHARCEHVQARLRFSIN

[1] = cytotoxicity toward NIH3T3 fibroblasts, dose response, counter-screen, cell-based, ATP luminescence, mouse fibroblasts (AID 2010); assay type: functional;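 note: cells exposed to compound for about 90 hours before reading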
[2] = inhibitors of intracellular T. cruzi replication, confirmation, NIH3T3 host cells, beta-gal luminescence (AID 2044); assay type: functional, cell-based;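 note: intracellular parasites grown in NIH/3T3 mouse fibroblasts as host cells; luminescent beta-galactosidase reporter signal from transgenic T. cruzi replicating inside host cells; inhibitors lower the luminescence signal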
Cytochrome P450 3A4 = Cytochrome P450 3A4 (Homo sapiens, UniProt P08684);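 note: CYP3A4 tested as one member of a cytochrome P450 panel screen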
[3] = Luminescence Cell-Based Dose Retest to Confirm Inhibitors of Cancer Stem Cells. [Related pubchem assays (depositor defined):AID2717, AID2721]; assay type: functional, Homo sapiens; conditions: Homo sapiens
[4] = molecular target: T2, Heat shock factor protein 1 (Mus musculus, UniProt P38532); experiment: HSF1 potentiators in luciferase reporter cells, confirmation, cell-based, NIH3T3, luminescence, dose retest (AID 435004); assay type: functional;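 note: stress induced by proteasome inhibitor MG132 added 30 min after compound; luciferase reporter driven by HSF1 response element in NIH3T3 cells; actives raise luminescence as potentiators of the MG132 stress response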
T2 sequence (P38532 whole entry): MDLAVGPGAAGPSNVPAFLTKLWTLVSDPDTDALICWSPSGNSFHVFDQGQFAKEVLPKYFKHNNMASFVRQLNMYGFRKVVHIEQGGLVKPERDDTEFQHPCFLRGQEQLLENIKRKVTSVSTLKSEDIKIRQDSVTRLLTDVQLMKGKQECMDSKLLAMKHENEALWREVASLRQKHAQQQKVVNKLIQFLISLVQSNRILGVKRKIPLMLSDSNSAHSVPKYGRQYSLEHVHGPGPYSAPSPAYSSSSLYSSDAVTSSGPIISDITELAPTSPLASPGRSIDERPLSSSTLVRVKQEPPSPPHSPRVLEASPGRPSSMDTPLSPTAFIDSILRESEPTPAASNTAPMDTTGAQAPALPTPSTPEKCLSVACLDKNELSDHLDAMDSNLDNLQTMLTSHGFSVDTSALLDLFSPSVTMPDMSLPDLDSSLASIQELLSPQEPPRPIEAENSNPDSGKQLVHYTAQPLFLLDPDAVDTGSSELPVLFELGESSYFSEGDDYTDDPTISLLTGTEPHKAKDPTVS

[5] = HEp-2 cell cytotoxicity, dose response, cytotoxicity control for RSV inhibitor project, HTS (AID 2410); assay type: functional; conditions: human respiratory syncytial virus
Leucine aminopeptidase = molecular target: T3, Leucine aminopeptidase (Plasmodium falciparum 3D7, UniProt Q8IL11); experiment: P. falciparum M17LAP inhibitors, primary screen, biochemical, fluorogenic H-Leu-NHMec substrate, 1536-well (AID 1619); assay type: functional
T3 sequence (Q8IL11 whole entry): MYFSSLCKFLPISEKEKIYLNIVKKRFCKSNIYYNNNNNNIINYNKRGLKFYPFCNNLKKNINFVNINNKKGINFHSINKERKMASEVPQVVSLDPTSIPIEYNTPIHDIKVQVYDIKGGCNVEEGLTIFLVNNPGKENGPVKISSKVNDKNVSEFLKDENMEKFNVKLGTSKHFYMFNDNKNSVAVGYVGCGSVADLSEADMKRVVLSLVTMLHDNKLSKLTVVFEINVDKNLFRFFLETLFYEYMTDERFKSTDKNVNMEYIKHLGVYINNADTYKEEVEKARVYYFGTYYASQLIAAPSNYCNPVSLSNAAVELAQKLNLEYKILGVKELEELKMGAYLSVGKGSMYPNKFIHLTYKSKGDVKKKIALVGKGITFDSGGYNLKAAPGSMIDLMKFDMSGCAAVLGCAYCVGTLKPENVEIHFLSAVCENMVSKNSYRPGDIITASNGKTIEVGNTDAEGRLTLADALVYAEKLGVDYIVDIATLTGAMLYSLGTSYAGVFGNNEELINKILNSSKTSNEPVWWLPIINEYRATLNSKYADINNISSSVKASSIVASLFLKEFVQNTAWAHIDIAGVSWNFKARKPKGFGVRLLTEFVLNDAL

[6] = Luminescence Cell-Based Dose Confirmation HTS to Identify Activators of 5'UTR Stem-Loop Driven Alpha-Synuclein mRNA Translation in H4 Neuroglioblastoma Cells. [Related pubchem assays: 1829 (Project Summary), 1814 (Primary HTS)]; assay type: functional
[7] = Luminescence Cell-Based Dose Response HTS to Identify Activators of Luciferase Translation or Activity in H4 […] Cells. [Related pubchem assays: 1829 (Project Summary), 1814 (Primary HTS)]; assay type: functional
[8] = tested on: Streptococcus sp. 'group A'; experiment: growth inhibition of control SK(-) GAS strain, dose response, counter-screen for streptokinase expression inhibitor project, luminescence, kanamycin, BacTiterGlo, confirmation (AID 1900); assay type: functional, organism-based
H4 = experiment: Luminescence Cell-Based Dose Response HTS to Identify Activators of 5'UTR Stem-Loop Driven Prion Protein mRNA Translation in H4 Neuroglioblastoma Cells. [Related pubchem assays: 1829 (Project Summary), 1814 (Primary HTS)]; assay type: functional; conditions: Homo sapiens
Streptokinase A = molecular target: T4, Streptokinase A (Streptococcus pyogenes serotype M1, UniProt P10520); experiment: S. pyogenes streptokinase expression inhibitors, potency, dose response, plasminogen activation absorbance, OD405 (AID 1914); assay type: functional, Streptococcus pyogenes M1 GAS;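 note: secreted streptokinase activity via plasminogen activation per viability signal from cell pellet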
T4 sequence (P10520 whole entry): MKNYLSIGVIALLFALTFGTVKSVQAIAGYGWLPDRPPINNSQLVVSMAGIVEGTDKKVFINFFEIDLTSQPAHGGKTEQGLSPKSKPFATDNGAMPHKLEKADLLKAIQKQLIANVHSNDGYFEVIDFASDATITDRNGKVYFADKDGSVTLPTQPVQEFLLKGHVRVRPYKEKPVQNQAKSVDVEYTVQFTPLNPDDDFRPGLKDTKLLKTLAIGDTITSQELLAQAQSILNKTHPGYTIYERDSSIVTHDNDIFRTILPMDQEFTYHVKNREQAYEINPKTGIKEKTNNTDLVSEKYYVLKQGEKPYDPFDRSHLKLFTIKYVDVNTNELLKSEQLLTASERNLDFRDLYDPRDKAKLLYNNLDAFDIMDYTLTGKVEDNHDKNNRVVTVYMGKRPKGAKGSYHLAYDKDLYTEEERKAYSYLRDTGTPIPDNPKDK

Streptococcus = experiment: Group A Streptococcus viability loss, dose response, counter-screen for streptokinase expression inhibitor project, luminescence, BacTiterGlo (AID 1915); assay type: functional, organism-based;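 note: potency for reduction of bacterial viability or growth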

Sequence of Cytochrome P450 2D6 (P10635 whole entry): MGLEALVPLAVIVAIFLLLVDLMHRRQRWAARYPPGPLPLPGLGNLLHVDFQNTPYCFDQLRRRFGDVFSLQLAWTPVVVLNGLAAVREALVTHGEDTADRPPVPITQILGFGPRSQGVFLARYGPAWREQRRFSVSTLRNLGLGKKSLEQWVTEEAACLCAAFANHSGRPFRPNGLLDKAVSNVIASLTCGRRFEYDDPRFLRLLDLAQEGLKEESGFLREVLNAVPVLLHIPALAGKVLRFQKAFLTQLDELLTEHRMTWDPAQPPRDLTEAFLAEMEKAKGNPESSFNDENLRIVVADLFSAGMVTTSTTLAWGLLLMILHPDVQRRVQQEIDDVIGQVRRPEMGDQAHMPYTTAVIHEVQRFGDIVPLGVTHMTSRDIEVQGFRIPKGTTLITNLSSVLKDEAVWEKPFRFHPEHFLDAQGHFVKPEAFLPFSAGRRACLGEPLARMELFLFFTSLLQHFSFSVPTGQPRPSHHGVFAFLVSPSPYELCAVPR
Sequence of Cytochrome P450 2C9 (P11712 whole entry): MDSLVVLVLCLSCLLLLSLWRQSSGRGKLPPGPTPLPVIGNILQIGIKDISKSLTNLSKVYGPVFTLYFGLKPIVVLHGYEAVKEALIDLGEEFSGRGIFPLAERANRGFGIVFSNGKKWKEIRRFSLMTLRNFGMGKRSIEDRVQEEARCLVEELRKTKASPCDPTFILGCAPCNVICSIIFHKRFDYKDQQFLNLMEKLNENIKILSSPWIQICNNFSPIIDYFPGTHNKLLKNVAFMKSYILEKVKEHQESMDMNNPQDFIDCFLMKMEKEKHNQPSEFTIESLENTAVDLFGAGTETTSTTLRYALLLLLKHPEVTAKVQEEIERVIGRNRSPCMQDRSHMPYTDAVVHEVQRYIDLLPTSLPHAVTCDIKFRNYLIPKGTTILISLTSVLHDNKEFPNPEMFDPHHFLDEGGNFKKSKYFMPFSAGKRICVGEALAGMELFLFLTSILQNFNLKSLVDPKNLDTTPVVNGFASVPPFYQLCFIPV
Sequence of Cytochrome P450 2C19 (P33261 whole entry): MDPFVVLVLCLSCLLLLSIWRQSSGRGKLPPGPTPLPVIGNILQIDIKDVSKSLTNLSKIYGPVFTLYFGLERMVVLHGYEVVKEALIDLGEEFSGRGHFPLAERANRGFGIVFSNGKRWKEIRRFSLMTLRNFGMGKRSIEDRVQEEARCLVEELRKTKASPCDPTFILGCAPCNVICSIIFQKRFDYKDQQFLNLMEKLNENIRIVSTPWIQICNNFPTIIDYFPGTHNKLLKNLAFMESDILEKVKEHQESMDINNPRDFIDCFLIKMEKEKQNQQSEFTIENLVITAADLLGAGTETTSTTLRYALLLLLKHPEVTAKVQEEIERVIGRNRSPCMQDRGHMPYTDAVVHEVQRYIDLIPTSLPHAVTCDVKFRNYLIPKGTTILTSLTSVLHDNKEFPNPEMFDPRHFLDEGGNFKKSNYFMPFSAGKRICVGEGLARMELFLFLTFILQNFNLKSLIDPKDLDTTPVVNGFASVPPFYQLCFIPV
Sequence of Cytochrome P450 3A4 (P08684 whole entry): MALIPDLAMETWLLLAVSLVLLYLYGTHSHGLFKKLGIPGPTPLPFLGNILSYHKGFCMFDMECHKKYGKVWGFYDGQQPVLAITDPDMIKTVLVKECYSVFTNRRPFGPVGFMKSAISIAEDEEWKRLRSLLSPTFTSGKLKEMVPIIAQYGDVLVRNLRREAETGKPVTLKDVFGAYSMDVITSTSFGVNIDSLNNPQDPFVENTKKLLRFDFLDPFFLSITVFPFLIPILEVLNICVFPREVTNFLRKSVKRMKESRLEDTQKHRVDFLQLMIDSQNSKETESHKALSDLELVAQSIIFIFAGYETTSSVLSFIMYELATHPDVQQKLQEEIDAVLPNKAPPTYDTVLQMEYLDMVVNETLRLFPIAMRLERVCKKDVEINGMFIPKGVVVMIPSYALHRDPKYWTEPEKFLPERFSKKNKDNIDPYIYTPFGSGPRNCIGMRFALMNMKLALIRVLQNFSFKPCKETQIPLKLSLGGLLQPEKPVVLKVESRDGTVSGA

O=C1N(c2ccccc2C(F)(F)F)O[C@@]1(c1ccccc1)C1CCCC1
CC50 (Vero): 21.6 µM (active)

O=C(O)/C=C\c1ccc(O)c(O)c1
AC50 (Cytochrome P450 2C9): 15.8 µM (inconclusive)

Cc1cccc(C)c1NC(=O)CSc1nc(C)c(CC(=O)c2ccc(Br)cc2)c(C)c1C#N
AC50 (Cytochrome P450 2C19): 35.5 µM (inconclusive)
AC50 (Cytochrome P450 2C9): 1.12 µM (inconclusive)

O=C(CCCn1c(=S)[nH]c2cc3c(cc2c1=O)OCO3)N1CCN(c2ccccc2)CC1
AC50 (Cytochrome P450 2D6): 1.26 µM (inconclusive)
AC50 (Cytochrome P450 1A2): 4.47 µM (inconclusive)
AC50 (Cytochrome P450 2C9): 0.0891 µM (inconclusive)

Cc1ccc2[nH]c(C3CCCN(C(S)=Nc4ccccc4C)C3)nc2c1 (stereo unspecified)
AC50 (Cytochrome P450 2C19): 1.41 µM (inconclusive)
EC50 [1]: > 60 µM (not active)
AC50 (Cytochrome P450 2C9): 3.16 µM (inconclusive)
EC50 [2]: 0.443 µM (active)

CCOC(=O)c1cnc(-n2nc(C)cc2C)nc1NCCO
AC50 (Cytochrome P450 3A4): 25.1 µM (inconclusive)
AC50 (Cytochrome P450 1A2): 14.1 µM (inconclusive)
AC50 (Cytochrome P450 2C9): 20 µM (inconclusive)

COc1ccc(C(=O)/C=C/c2ccc(OC)c(Cn3nnc4ccccc43)c2)cc1
AC50 [3]: 6.14 µM (active)
CC50 (Vero): 15.2 µM (active)
EC50 [4]: 14.1 µM (active)
CC50 [5]: 12.1 µM (active)

COc1ccc(C(=O)N/N=C2/C(=O)c3c(C)cc(C)cc3CC2(C)C)cc1
AC50 (Cytochrome P450 1A2): 5.01 µM (inconclusive)
AC50 (Cytochrome P450 2C9): 6.31 µM (inconclusive)

C=C(C(=O)c1ccccc1)C(c1ccccc1)C(C)C(=O)c1ccccc1 (stereo unspecified)
CC50 (Vero): 17.8 µM (active)

O=C(COc1ccccc1)NNC(=S)NC(=O)c1ccccc1
CC50 (Vero): > 25 µM (active)
IC50 (Leucine aminopeptidase): 9.22 µM (active)

O=C(NCCN1CCN(Cc2ccccc2)CC1)C1CC(=O)N(C2CCCC2)C1 (stereo unspecified)
AC50 (Cytochrome P450 2D6): 14.1 µM (inconclusive)
AC50 (Cytochrome P450 2C9): 0.398 µM (inconclusive)

O=C(Nc1nnc(C2CCCCC2)s1)c1ccc(Br)s1
EC50 [6]: 11.6 µM (active)
EC50 [7]: 65.3 µM (active)
EC50 [8]: 6.45 µM (active)
EC50 (H4): 81.8 µM (active)
EC50 (Streptokinase A): > 150 µM (not active)
EC50 (Streptococcus): > 150 µM (not active)

COC(=O)c1[nH]c2cc(OC)ccc2c1NC(=O)c1nonc1C
AC50 (Cytochrome P450 3A4): 7.08 µM (inconclusive)
AC50 (Cytochrome P450 1A2): 0.794 µM (inconclusive)
AC50 (Cytochrome P450 2C9): 1.26 µM (inconclusive)

CCc1nc(SCC(=O)N2CCCc3ccccc32)c2oc3ccccc3c2n1
AC50 (Cytochrome P450 2D6): 20 µM (inconclusive)
AC50 (Cytochrome P450 2C9): 4.47 µM (inconclusive)
